Measurements reported in PubChem BioAssay AID276 (DTP/NCI, 2004).
Where “and” joins values, the source holds several entries; their conditions need not be identical. Equal values may be shown once. Inconclusive results and toxic doses are left out. How the source made its calls: active means survival T/C of 150% or more; inactive means T/C below 125% in these data.

System: B6C3F1 mice, Lewis lung carcinoma iv, survival T/C
Assay: NCI In Vivo Anticancer Drug Screen. Data for tumor model Lewis Lung Carcinoma (intravenous) in B6C3F1 mice
Settings: endpoint: median survival time, schedule: Q01DX009 (ip), higher = longer survival
Outline: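 T/C ratio derived from survival of compound-treated versus vehicle-treated mice bearing transplantable tumors.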

[1] = dose: 12.5 mg/kg/injection, vehicle: saline with Tween-80
[2] = dose: 25.0 mg/kg/injection, vehicle: saline with Tween-80
[3] = dose: 50.0 mg/kg/injection, vehicle: saline with Tween-80
[4] = dose: 100.0 mg/kg/injection, vehicle: saline with Tween-80
[5] = dose: 200.0 mg/kg/injection, vehicle: saline with Tween-80
[6] = dose: 400.0 mg/kg/injection, vehicle: saline with Tween-80
[7] = dose: 3.12 mg/kg/injection, vehicle: Klucel (hydroxypropylcellulose) (HPC)
[8] = dose: 6.25 mg/kg/injection, vehicle: Klucel (hydroxypropylcellulose) (HPC)
[9] = dose: 12.5 mg/kg/injection, vehicle: Klucel (hydroxypropylcellulose) (HPC)
[10] = dose: 50.0 mg/kg/injection, vehicle: Klucel (hydroxypropylcellulose) (HPC)
[11] = dose: 25.0 mg/kg/injection, vehicle: saline
[12] = dose: 50.0 mg/kg/injection, vehicle: saline
[13] = dose: 100.0 mg/kg/injection, vehicle: saline
[14] = dose: 200.0 mg/kg/injection, vehicle: saline
[15] = dose: 6.25 mg/kg/injection, vehicle: saline with Tween-80
[16] = dose: 6.25 mg/kg/injection, vehicle: saline
[17] = dose: 25.0 mg/kg/injection, vehicle: Klucel (hydroxypropylcellulose) (HPC)

Measured: T/C

COC1/C=C/O[C@@]2(C)Oc3c(C)c(O)c4c(O)c(cc(O)c4c3C2=O)NC(=O)/C(C)=C\C=C\[C@H](C)C(O)[C@@H](C)[C@@H](O)[C@@H](C)[C@H](OC(C)=O)[C@@H]1C (stereo partly specified)
inactive: [1] 109 % of control | [2] 106 % of control | [3] 105 % of control | [4] 101 % of control | [5] 101 % of control | [6] 100 % of control

CN(C)N=Nc1cccc(C(N)=O)c1
inactive: dose: 10.0 mg/kg/injection, vehicle: Klucel (hydroxypropylcellulose) (HPC) 114 % of control | dose: 20.0 mg/kg/injection, vehicle: Klucel (hydroxypropylcellulose) (HPC) 115 % of control

CCCC(=O)OCc1cc(=O)n(C)c2c3c4c(cc12)c(C)cc(=O)n4CO3
inactive: [7] 91 % of control | [8] 97 % of control | [9] 92 % of control | [10] 118 % of control

CC(C)NCC(O)COc1ccc(O)c(O)c1 (stereo unspecified)
inactive: [11] 93 % of control and 96 % of control | [12] 98 % of control and 100 % of control | [13] 89 % of control and 96 % of control | [14] 98 % of control

Cn1cnc([N+](=O)[O-])c1Sc1nc(N)nc2c1ncn2C1OC(CO)C(O)C1O (stereo unspecified)
inactive: dose: 1.56 mg/kg/injection, vehicle: suspension in saline 105 % of control | dose: 3.12 mg/kg/injection, vehicle: suspension in saline 100 % of control | dose: 6.25 mg/kg/injection, vehicle: suspension in saline 105 % of control

O=C(Nc1ccccc1C(=O)O)c1cc([N+](=O)[O-])cc([N+](=O)[O-])c1
inactive: [1] 96 % of control | [2] 91 % of control | [3] 102 % of control | [4] 102 % of control | [5] 95 % of control

CC1/C=C/C=C/CC/C=C/C=C/C=C/C=C/C(OC2OC(C)C(O)C(N)C2O)CC2OC(CC(O)C(O)CCC(O)CC(O)CC(O)CC(=O)OC(C)C(C)C1O)CC(O)C2C(=O)O (stereo unspecified)
inactive: [15] 103 % of control | [1] 103 % of control | [2] 98 % of control | [3] 101 % of control

O=[Te]=O
inactive: dose: 3.0 mg/kg/injection, vehicle: suspension in saline 121 % of control | dose: 3.12 mg/kg/injection, vehicle: saline 102 % of control | dose: 6.0 mg/kg/injection, vehicle: suspension in saline 101 % of control | [16] 100 % of control | dose: 12.0 mg/kg/injection, vehicle: suspension in saline 101 % of control | dose: 12.5 mg/kg/injection, vehicle: saline 106 % of control | dose: 24.0 mg/kg/injection, vehicle: suspension in saline 106 % of control | dose: 48.0 mg/kg/injection, vehicle: suspension in saline 115 % of control

CCCCCCCC(=O)O[C@H]1[C@H]2[C@@H](CC1(C)C)C(=O)[C@]13O[C@H]1C(=O)[C@]1(CO1)[C@]23C
inactive: dose: 1.25 mg/kg/injection, vehicle: saline with Tween-80 100 % of control | dose: 2.5 mg/kg/injection, vehicle: saline with Tween-80 97 % of control | dose: 5.0 mg/kg/injection, vehicle: saline with Tween-80 102 % of control | dose: 10.0 mg/kg/injection, vehicle: saline with Tween-80 88 % of control

c1ccc([P+](c2ccccc2)(c2ccccc2)c2ccccc2)cc1
inactive: dose: 0.09 mg/kg/injection, vehicle: saline 112 % of control | dose: 0.18 mg/kg/injection, vehicle: saline 112 % of control | dose: 0.37 mg/kg/injection, vehicle: saline 107 % of control | dose: 0.75 mg/kg/injection, vehicle: saline 105 % of control and 112 % of control | dose: 1.5 mg/kg/injection, vehicle: saline 103 % of control and 111 % of control | dose: 3.0 mg/kg/injection, vehicle: saline 95 % of control and 124 % of control | dose: 6.0 mg/kg/injection, vehicle: saline 94 % of control

C=C(C(=O)O)C(N)C(=O)O (stereo unspecified)
inactive: [11] 95 % of control | [12] 102 % of control | [13] 100 % of control | [14] 117 % of control

CN(C)C(=O)SC1=C(c2c(Cl)cccc2Cl)C(=O)c2ccccc21
inactive: [17] 102 % of control | [10] 110 % of control | dose: 100.0 mg/kg/injection, vehicle: Klucel (hydroxypropylcellulose) (HPC) 105 % of control | dose: 200.0 mg/kg/injection, vehicle: Klucel (hydroxypropylcellulose) (HPC) 108 % of control

Nc1nc(-c2ccccc2)c(Br)c(=O)[nH]1
inactive: [2] 114 % of control | [3] 107 % of control | [4] 110 % of control | [5] 92 % of control and 121 % of control | [6] 100 % of control and 118 % of control | dose: 800.0 mg/kg/injection, vehicle: saline with Tween-80 100 % of control

C=C(C)[C@H]1CN[C@H](C(=O)O)[C@H]1CC(=O)O
inactive: dose: 0.31 mg/kg/injection, vehicle: saline 113 % of control | dose: 0.62 mg/kg/injection, vehicle: saline 103 % of control | dose: 1.25 mg/kg/injection, vehicle: saline 112 % of control | dose: 2.5 mg/kg/injection, vehicle: saline 100 % of control | dose: 5.0 mg/kg/injection, vehicle: saline 112 % of control | dose: 10.0 mg/kg/injection, vehicle: saline 107 % of control

c1cc(OCC2CO2)ccc1OCC1CO1 (stereo unspecified)
inactive: [1] 96 % of control | [2] 94 % of control | [3] 100 % of control | [4] 96 % of control

c1ccc2c(c1)-c1ccccc1C1NC21 (stereo unspecified)
inactive: [15] 100 % of control | [1] 106 % of control

CCOc1cc2c(cc1C(C)c1ccc(OC)cc1)OCO2 (stereo unspecified)
inactive: dose: 12.5 mg/kg/injection, vehicle: distilled water + Tween-80 + alcohol 104 % of control | dose: 12.5 mg/kg/injection, vehicle: distilled water + alcohol 106 % of control | dose: 25.0 mg/kg/injection, vehicle: distilled water + Tween-80 + alcohol 103 % of control | dose: 25.0 mg/kg/injection, vehicle: distilled water + alcohol 104 % of control | dose: 50.0 mg/kg/injection, vehicle: DMSO 102 % of control | dose: 50.0 mg/kg/injection, vehicle: distilled water + Tween-80 + alcohol 103 % of control | dose: 50.0 mg/kg/injection, vehicle: distilled water + alcohol 112 % of control | dose: 100.0 mg/kg/injection, vehicle: distilled water + alcohol 108 % of control | dose: 200.0 mg/kg/injection, vehicle: distilled water + alcohol 110 % of control

BrC1CC(Br)c2c1c1c(c3c2C(Br)CC3Br)C(Br)CC1Br (stereo unspecified)
inactive: [1] 99 % of control | [2] 103 % of control | [3] 92 % of control | [5] 121 % of control | [6] 112 % of control

COc1cccc2c1C(=O)c1c(O)c3c(c(O)c1C2=O)C[C@@](O)(/C(C)=N\NC(=O)CO)C[C@@H]3OC1CC(N)C(O)C(C)O1 (stereo partly specified)
inactive: [16] 87 % of control

COc1ccc(Cl)[n+]([O-])n1
inactive: dose: 0.39 mg/kg/injection, vehicle: Klucel (hydroxypropylcellulose) (HPC) 98 % of control | dose: 0.78 mg/kg/injection, vehicle: Klucel (hydroxypropylcellulose) (HPC) 91 % of control | dose: 1.56 mg/kg/injection, vehicle: Klucel (hydroxypropylcellulose) (HPC) 103 % of control | [7] 96 % of control | [8] 100 % of control and 88 % of control | [9] 99 % of control and 105 % of control | [17] 107 % of control | [10] 112 % of control
